Columns and labels:
[1] = tested on: HLA-A*11:01-restricted antigen-specific CD8+ T cells in patient's PBMC; test: Highly multiplexed combinatorial pMHC tetramer staining with mass cytometry (epitope mapping, frequency of antigen-specific CD8+ T cells)
[2] = tested on: antigen-specific CD8+ T cells; test: High-dimensional phenotypic profiling of antigen-specific CD8+ T cells (t-SNE, Phenograph, One-SENSE, Scorpius); format: cell-based, human; settings: ex vivo
Experimental: Validated antigen-specific CD8+ T cells were exported individually from each donor for dimensionality reduction analysis. Detailed methodology for t-SNE and One-SENSE can be found elsewhere. Briefly, t-SNE and One-SENSE were performed using custom R scripts based on “flowCore” and “Rtsne” packages downloaded from The Comprehensive R Archive Network (CRAN). All data were transformed using the “logicleTransform” function and w=0.25, t=16409, m=4.5, a=0 as input parameters to roughly match scaling historically used in FlowJo. Cellular markers analyzed by t-SNE and One-SENSE were indicated (table S2). For One-SENSE, cellular markers in each T cell category (“Differentiation+TNFR”, “Exhaustion” and “Trafficking”) were subjectively assigned for categorical analysis. Aligned heatplots represent the distribution of marker positive cells in percentage on each “bin” on the axis (category) constructed by cells residing in small ranges of values. Positive population of markers was manually defined and markers of the same category were combined for each dimension using 250 bins.
Logistic regression was performed using the drc R package (v 3.0.1) using a 3-parameters logistic model.

[3] = Inactive Carrier (InA) CHB patients, patients with detected tetramer+ CD8+ T cells (frequency > 0.002%) / patients in the group, per epitope cluster
[4] = patients with detected epitope-specific CD8+ T cells / patients tested, Inactive Carrier (InA) group, Freq > 0.002%
[5] = patients with detected epitope-specific CD8+ T cells / patients tested, Immune Tolerant (IT) group, Freq > 0.002%
[6] = patients with detected epitope-specific CD8+ T cells / patients tested, acute resolved (R) group, Freq > 0.002%
[7] = patients with detected epitope-specific CD8+ T cells / patients tested, Immune Active (IA) group, Freq > 0.002%
[8] = Immune Active (IA) patients, donors with tetramer+ CD8+ T cell frequency > 0.002% / donors tested
[9] = Immune Tolerant (IT) patients, donors with tetramer+ CD8+ T cell frequency > 0.002% / donors tested
[10] = Inactive Carrier (InA) patients, donors with tetramer+ CD8+ T cell frequency > 0.002% / donors tested
[11] = acute resolved (R) patients, donors with tetramer+ CD8+ T cell frequency > 0.002% / donors tested
[12] = Immune Active (IA) CHB patients, patients with detected tetramer+ CD8+ T cells (frequency > 0.002%) / patients in the group, per epitope cluster
[13] = Immune Tolerant (IT) CHB patients, patients with detected tetramer+ CD8+ T cells (frequency > 0.002%) / patients in the group, per epitope cluster
[14] = Acute resolved (R) patients, patients with detected tetramer+ CD8+ T cells (frequency > 0.002%) / patients in the group, per epitope cluster

AGFFLLTK
Hits (Freq > 0.002%) InA [1, 3]: 1/13

AMGDAGGYK
Hits (Freq > 0.002%) InA [1, 4]: 1/13

ASCMGLIYNR
Hits (Freq > 0.002%) IT [1, 5]: 1/8
Hits (Freq > 0.002%) InA [1, 4]: 1/13
Hits (Freq > 0.002%) R [1, 6]: 1/12

ATVLMGLGK
Hits (Freq > 0.002%) IA [1, 7]: 1/12
Hits (Freq > 0.002%) IT [1, 5]: 1/8
Hits (Freq > 0.002%) InA [1, 4]: 1/13

ATVQGQNLK
Hits (Freq > 0.002%) IA [1, 7]: 2/12
Hits (Freq > 0.002%) IT [1, 5]: 3/8
Hits (Freq > 0.002%) InA [1, 4]: 9/13
Hits (Freq > 0.002%) R [1, 6]: 4/12

AVVRRRCRSPR
Hits (Freq > 0.002%) IA [1, 8]: 6/12
Hits (Freq > 0.002%) IT [1, 9]: 3/8
Hits (Freq > 0.002%) InA [1, 10]: 2/13
Hits (Freq > 0.002%) R [1, 11]: 1/12

CSCPTVQASK
Hits (Freq > 0.002%) InA [1, 4]: 2/13

GILPRSSVGPR
Hits (Freq > 0.002%) IA [1, 12]: 1/12
Hits (Freq > 0.002%) InA [1, 3]: 3/13

GSCIQSQLRK
Hits (Freq > 0.002%) IT [1, 13]: 1/8

GSTHVSWPK
Hits (Freq > 0.002%) IA [1, 8]: 1/12
Hits (Freq > 0.002%) IT [1, 9]: 1/8

GTLPQEHIVLK
Hits (Freq > 0.002%) R [1, 11]: 1/12

GTSGSPIVNR
Hits (Freq > 0.002%) IA [1, 7]: 4/12
Hits (Freq > 0.002%) IT [1, 5]: 5/8
Hits (Freq > 0.002%) InA [1, 4]: 4/13
Hits (Freq > 0.002%) R [1, 6]: 4/12

GVWIRTPPAYR
Hits (Freq > 0.002%) InA [1, 4]: 1/13

HBV-C-195v2: HBV core epitope, cluster 283, 1 unique peptide (RSQSPRRRRSK; Hepatitis B virus)
phenotype of tetramer-stained epitope-specific CD8+ T cells [2]: mostly naïve-like phenotype
detection / frequency of epitope-specific CD8+ T cells across patient groups ([1]; ex vivo PBMC, groups IT, IA, InA, R, HD, CB): highest frequencies observed

HTLWKAGILYK
Hits (Freq > 0.002%) R [1, 14]: 2/12
Hits (Freq > 0.002%) IA [1, 12]: 4/12
Hits (Freq > 0.002%) IT [1, 13]: 1/8
Hits (Freq > 0.002%) InA [1, 3]: 1/13

IVQKIKMCFRK
Hits (Freq > 0.002%) IA [1, 8]: 1/12
Hits (Freq > 0.002%) IT [1, 9]: 1/8
Hits (Freq > 0.002%) R [1, 11]: 2/12

KIKMCFRK
Hits (Freq > 0.002%) IT [1, 9]: 2/8
Hits (Freq > 0.002%) R [1, 11]: 1/12

KLVGINMSKK
Hits (Freq > 0.002%) InA [1, 4]: 1/13

KSGAIKVLK
Hits (Freq > 0.002%) InA [1, 4]: 1/13

KTAYSHLSTSK
Hits (Freq > 0.002%) R [1, 14]: 7/12
Hits (Freq > 0.002%) IT [1, 13]: 8/8

KTFDSEYVK
Hits (Freq > 0.002%) R [1, 6]: 1/12

KTFVDLMRR
Hits (Freq > 0.002%) IA [1, 7]: 1/12

KTYGRKLHLY
Hits (Freq > 0.002%) IT [1, 9]: 1/8
Average of hits (%) IT ([1]; Immune Tolerant (IT) patients, mean frequency of antigen-specific CD8+ T cells among hits): 0.002007%

KVFVLGGCRHK
Hits (Freq > 0.002%) IA [1, 7]: 1/12
Hits (Freq > 0.002%) IT [1, 5]: 1/8
Hits (Freq > 0.002%) R [1, 6]: 2/12

LLYKTFGRK
Hits (Freq > 0.002%) IA [1, 8]: 5/12
Hits (Freq > 0.002%) IT [1, 9]: 4/8
Hits (Freq > 0.002%) InA [1, 10]: 5/13
Hits (Freq > 0.002%) R [1, 11]: 1/12

LQAGFFLLTK
Hits (Freq > 0.002%) IA [1, 12]: 1/12

LSLGIHLNPNK
Hits (Freq > 0.002%) IA [1, 8]: 3/12
Hits (Freq > 0.002%) InA [1, 10]: 1/13

LSYLHFRK
Hits (Freq > 0.002%) R [1, 14]: 2/12
Hits (Freq > 0.002%) IA [1, 12]: 4/12
Hits (Freq > 0.002%) IT [1, 13]: 3/8
Hits (Freq > 0.002%) InA [1, 3]: 1/13

LTFGRETVLE
Hits (Freq > 0.002%) InA [1, 4]: 1/13
Hits (Freq > 0.002%) R [1, 6]: 1/12

LTINENRRLK
Hits (Freq > 0.002%) IA [1, 12]: 1/12

LVFQTSER
Hits (Freq > 0.002%) R [1, 14]: 1/12
Hits (Freq > 0.002%) InA [1, 3]: 1/13

LVVDFSQFSR
Hits (Freq > 0.002%) IA [1, 8]: 9/12
Hits (Freq > 0.002%) IT [1, 9]: 5/8
Hits (Freq > 0.002%) InA [1, 10]: 9/13
Hits (Freq > 0.002%) R [1, 11]: 9/12

LVYRPTTGR
Hits (Freq > 0.002%) IA [1, 8]: 1/12
Hits (Freq > 0.002%) InA [1, 10]: 1/13

MATYGWNLVK
Hits (Freq > 0.002%) IA [1, 7]: 1/12
Hits (Freq > 0.002%) InA [1, 4]: 1/13

MLLYKTYGRK
Hits (Freq > 0.002%) InA [1, 10]: 1/13

MSMTDLEAYFK
Hits (Freq > 0.002%) IA [1, 7]: 1/12
Hits (Freq > 0.002%) R [1, 6]: 1/12

MVSRLLLNR
Hits (Freq > 0.002%) IA [1, 7]: 1/12

NLNVSIPWTHK
Hits (Freq > 0.002%) R [1, 14]: 1/12
Hits (Freq > 0.002%) IA [1, 12]: 8/12
Hits (Freq > 0.002%) IT [1, 13]: 4/8
Hits (Freq > 0.002%) InA [1, 3]: 3/13

PSFPHIHLK
Hits (Freq > 0.002%) R [1, 14]: 1/12
Hits (Freq > 0.002%) IT [1, 13]: 1/8

PTYKAFLSK
Hits (Freq > 0.002%) IA [1, 8]: 2/12
Hits (Freq > 0.002%) IT [1, 9]: 1/8
Hits (Freq > 0.002%) InA [1, 10]: 2/13
Hits (Freq > 0.002%) R [1, 11]: 1/12

QQGSMASGK
Hits (Freq > 0.002%) InA [1, 3]: 1/13

QSSGILSR
Hits (Freq > 0.002%) R [1, 14]: 1/12

Reference: US12414990B2, “Use of HLA-A*11:01-restricted hepatitis B virus (HBV) peptides for identifying HBV-specific CD8+ T cells” (AGENCY FOR SCIENCE, TECHNOLOGY AND RESEARCH, priority 2019, dated 2025)
